According to US9839629B2, “Inhibitors of the renal outer medullary potassium channel” (Merck Sharp & Dohme Corp., priority 2013, dated 2017):

Biological target: T1, ROMK (Kir1.1) channel (Homo sapiens, UniProt P48048)
T1 sequence (P48048 1-391): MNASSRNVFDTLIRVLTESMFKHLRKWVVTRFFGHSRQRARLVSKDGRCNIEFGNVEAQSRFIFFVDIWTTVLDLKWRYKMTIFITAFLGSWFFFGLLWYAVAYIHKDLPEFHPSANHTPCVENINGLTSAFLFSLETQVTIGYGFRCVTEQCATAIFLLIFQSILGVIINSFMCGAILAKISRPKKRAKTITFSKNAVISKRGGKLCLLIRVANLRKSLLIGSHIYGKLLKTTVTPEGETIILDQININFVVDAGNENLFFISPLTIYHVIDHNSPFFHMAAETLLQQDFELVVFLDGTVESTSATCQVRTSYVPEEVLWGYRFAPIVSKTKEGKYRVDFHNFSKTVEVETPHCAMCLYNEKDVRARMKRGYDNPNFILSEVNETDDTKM
Assay: Thallium Flux Assay
Type: cell-based
Description: A Thallium Flux Assay was performed on each of the final product compounds in the Examples. When the final product of an Example was an HCl salt, the salt was run in the Assay. This assay has been described previously; see, e.g., PCT Published Application WO 2013/062900.

Row | IC50 [nM] | SMILES
1 | 11 | Cc1nc(-n2cnnn2)ccc1[C@@H](O)CN1CCC2(CC1)CCN(C1=C(F)C(=O)OC1)CC2 [Example 39, (R)-3-fluoro-4-(9-(2-hydroxy-2-(2-methyl-6-(1H-tetrazol-1-yl)pyridin-3-yl)ethyl)-3,9-diazaspiro[5.5]undecan-3-yl)furan-2(5H)-one]
2 | 181 | Cc1cc(-n2cnnn2)cnc1C(O)CN1CCC2(CC1)CCN(C1=CC(=O)OC1)CC2 (stereo in doubt) [Example 21, (S)-4-(9-(2-hydroxy-2-(3-methyl-5-(1H-tetrazol-1-yl)pyridin-2-yl)ethyl)-3,9-diazaspiro[5.5]undecan-3-yl)furan-2(5H)-one]
3 | 28 | O=C1C=C(N2CCC3(CCN(C[C@@H](O)c4ccc(-n5cnnn5)cc4F)CC3)CC2)CO1 [Example 23, (S)-4-(9-(2-(2-fluoro-4-(1H-tetrazol-1-yl)phenyl)-2-hydroxyethyl)-3,9-diazaspiro[5.5]undecan-3-yl)furan-2(5H)-one]
4 | 232 | CC1=C(N2CCC3(CC2)CCN([C@H](CO)c2ccc(-n4cnnn4)cc2C)CC3)COC1=O [Example 57, (S)-4-(9-(2-hydroxy-1-(2-methyl-4-(1H-tetrazol-1-yl)phenyl)ethyl)-3,9-diazaspiro[5.5]undecan-3-yl)-3-methylfuran-2(5H)-one]
5 | 132 | O=C1C=C(N2CCC3(CCN(C(=O)C4CCc5cc(-n6cnnn6)ncc54)CC3)CC2)CO1 (stereo not shown) [Example 103, 4-(9-{[3-(1H-tetrazol-1-yl)-6,7-dihydro-5H-cyclopenta[c]pyridin-7-yl]carbonyl}-3,9-diazaspiro[5.5]undec-3-yl)furan-2(5H)-one]
6 | 596 | C[C@@H]1Cc2cc(C(O)CN3CCC4(CC3)CCN(C3=CC(=O)OC3)CC4)ccc2C(=O)O1 (stereo partly drawn) [Example 10, (3R)-6-(1-hydroxy-2-(9-(5-oxo-2,5-dihydrofuran-3-yl)-3,9-diazaspiro[5.5]undecan-3-yl)ethyl)-3-methylisochroman-1-one]
7 | 70 | CC1=C(N2CCC3(CCN(C[C@H](O)c4ccc(-n5cnnn5)cn4)CC3)CC2)COC1=O [Example 51, (S)-4-(9-(2-(5-(1H-tetrazol-1-yl)pyridin-2-yl)-2-hydroxyethyl)-3,9-diazaspiro[5.5]undecan-3-yl)-3-methylfuran-2(5H)-one]
8 | 16 | Cc1nc(-n2cnnn2)ccc1[C@@H](O)CN1CCC2(CC1)CCN(C1=C(C3CC3)C(=O)OC1)CC2 (stereo in doubt) [Example 43, 3-cyclopropyl-4-(9-(2-hydroxy-2-(2-methyl-6-(1H-tetrazol-1-yl)pyridin-3-yl)ethyl)-3,9-diazaspiro[5.5]undecan-3-yl)furan-2(5H)-one]
9 | 53 | CO[C@@H]1CN(C2=C(C)C(=O)OC2)CCC12CCN(C[C@H](O)c1ccc3c(c1C)COC3=O)CC2 [Example 98, 5-{(1R)-1-hydroxy-2-[(7S)-7-methoxy-9-(4-methyl-5-oxo-2,5-dihydrofuran-3-yl)-3,9-diazaspiro[5.5]undec-3-yl]ethyl}-4-methyl-2-benzofuran-1(3H)-one]
10 | 114 | COCO[C@H]1CN(C2=C(C)C(=O)OC2)CCC12CCN(C[C@H](O)c1ccc3c(c1C)COC3=O)CC2 [Example 95, 5-{(1R)-1-hydroxy-2-[(7R)-7-(methoxymethoxy)-9-(4-methyl-5-oxo-2,5-dihydrofuran-3-yl)-3,9-diazaspiro[5.5]undec-3-yl]ethyl}-4-methyl-2-benzofuran-1(3H)-one]
11 | 15 | Cc1c(N2CCC3(CCN(C[C@H](O)c4ccc(-n5cnnn5)nc4)CC3)CC2)c(=O)c1=O [Example 81, (R)-3-(9-(2-(6-(1H-tetrazol-1-yl)pyridin-3-yl)-2-hydroxyethyl)-3,9-diazaspiro[5.5]undecan-3-yl)-4-methylcyclobut-3-ene-1,2-dione]
12 | 115 | O=C1C=C(N2CCC3(CCN(C(=O)Cc4cc(F)c(-n5cnnn5)cc4F)CC3)CC2)CO1 [Example 104, 4-(9-{[2,5-difluoro-4-(1H-tetrazol-1-yl)phenyl]acetyl}-3,9-diazaspiro[5.5]undec-3-yl)furan-2(5H)-one]
13 | 20 | CC1=C(N2CCC3(CCN(C[C@@H](O)c4cccc(-n5cnnn5)n4)CC3)CC2)COC1=O [Example 6B, (R)-4-(9-(2-(6-(1H-tetrazol-1-yl)pyridin-2-yl)-2-hydroxyethyl)-3,9-diazaspiro[5.5]undecan-3-yl)-3-methylfuran-2(5H)-one]
14 | 80 | Cc1c(N2CCC3(CCN(C[C@H](O)c4cnc(-n5cnnn5)cn4)CC3)CC2)c(=O)c1=O [Example 85, (S)-3-(9-(2-(5-(1H-tetrazol-1-yl)pyrazin-2-yl)-2-hydroxyethyl)-3,9-diazaspiro[5.5]undecan-3-yl)-4-methylcyclobut-3-ene-1,2-dione]
15 | 110 | CC1=C(N2CCC3(CCN(C[C@@H](O)c4cncc(-n5cnnn5)n4)CC3)CC2)COC1=O [Example 66, (R)-4-(9-(2-(6-(1H-tetrazol-1-yl)pyrazin-2-yl)-2-hydroxyethyl)-3,9-diazaspiro[5.5]undecan-3-yl)-3-methylfuran-2(5H)-one]
16 | 48 | Cc1nc(-n2cnnn2)ccc1[C@@H](O)CN1CCC2(CC1)CCN(C1=CC(=O)OC1)C(=O)C2 [Example 26, (R)-9-(2-hydroxy-2-(2-methyl-6-(1H-tetrazol-1-yl)pyridin-3-yl)ethyl)-3-(5-oxo-2,5-dihydrofuran-3-yl)-3,9-diazaspiro[5.5]undecan-2-one]
17 | 243 | Cc1nc(-n2cnnn2)ccc1[C@H](O)CN1CCC2(CC1)CCN(C1=CC(=O)CC1)CC2 [Example 71, (S)-3-(9-(2-hydroxy-2-(2-methyl-6-(1H-tetrazol-1-yl)pyridin-3-yl)ethyl)-3,9-diazaspiro[5.5]undecan-3-yl)cyclopent-2-enone]
18 | 30 | Cc1c([C@@H](O)CN2CCC3(CC2)CCN(c2c(C)c(=O)c2=O)CC3)ccc2c1COC2=O [Example 78, (R)-3-(9-(2-hydroxy-2-(4-methyl-1-oxo-1,3-dihydroisobenzofuran-5-yl)ethyl)-3,9-diazaspiro[5.5]undecan-3-yl)-4-methylcyclobut-3-ene-1,2-dione]
19 | 539 | CCOC1OC(=O)C=C1N1CCC2(CCN(C[C@H](O)c3ccc4c(c3C)COC4=O)CC2)CC1 (stereo partly drawn) [Example 92, 5-((1R)-2-(9-(2-ethoxy-5-oxo-2,5-dihydrofuran-3-yl)-3,9-diazaspiro[5.5]undecan-3-yl)-1-hydroxyethyl)-4-methylisobenzofuran-1(3H)-one]
20 | 16 | O=C1C=C(N2CCC3(CCN(C[C@H](O)c4ccc(-n5cnnn5)nc4)CC3)CC2)CO1 [Example 18, (R)-4-(9-(2-(6-(1H-tetrazol-1-yl)pyridin-3-yl)-2-hydroxyethyl)-3,9-diazaspiro[5.5]undecan-3-yl)furan-2(5H)-one]
21 | 5 | Cc1c([C@@H](O)CN2CCC3(CC2)CCN(C2=C(Cl)C(=O)OC2)CC3)ccc2c1COC2=O [Example 40, (R)-5-(2-(9-(4-chloro-5-oxo-2,5-dihydrofuran-3-yl)-3,9-diazaspiro[5.5]undecan-3-yl)-1-hydroxyethyl)-4-methylisobenzofuran-1(3H)-one]
22 | 31 | Cc1c(CCN2CCC3(CC2)CCN(C2=CC(=O)OC2)CC3)ccc2c1COC2=O [Example 2, 4-methyl-5-(2-(9-(5-oxo-2,5-dihydrofuran-3-yl)-3,9-diazaspiro[5.5]undecan-3-yl)ethyl)isobenzofuran-1(3H)-one]
23 | 275 | CC1=C(N2CCC3(CCN(C[C@H](O)c4ccc5c(c4C)COC5=O)CC3)[C@@H](F)C2)COC1=O [Example 34, 5-((R)-2-((R)-7-fluoro-9-(4-methyl-5-oxo-2,5-dihydrofuran-3-yl)-3,9-diazaspiro[5.5]undecan-3-yl)-1-hydroxyethyl)-4-methylisobenzofuran-1(3H)-one]
24 | 17 | Cc1c([C@@H](O)CN2CCC3(CC2)CCN(C2=C(C4CC4)C(=O)OC2)CC3)ccc2c1COC2=O [Example 44, (R)-5-(2-(9-(4-cyclopropyl-5-oxo-2,5-dihydrofuran-3-yl)-3,9-diazaspiro[5.5]undecan-3-yl)-1-hydroxyethyl)-4-methylisobenzofuran-1(3H)-one]
25 | 230 | CO[C@@H](CN1CCC2(CC1)CCN(c1c(C)c(=O)c1=O)CC2)c1ccc2c(c1C)COC2=O [Example 4, (R)-3-(9-(2-methoxy-2-(4-methyl-1-oxo-1,3-dihydroisobenzofuran-5-yl)ethyl)-3,9-diazaspiro[5.5]undecan-3-yl)-4-methylcyclobut-3-ene-1,2-dione]
26 | 109 | O=C1C=C(N2CCC3(CCN(C(=O)Cc4ccc(-n5cnnn5)nc4)CC3)CC2)CO1 [Example 99, 4-(9-(2-(6-(1H-tetrazol-1-yl)pyridin-3-yl)acetyl)-3,9-diazaspiro[5.5]undecan-3-yl)furan-2(5H)-one]
27 | 13 | CC1=C(N2CCC3(CCN(C[C@H](O)c4ccc5c(c4C)COC5=O)CC3)CC2)COC1=O [Example 7, (R)-5-(1-hydroxy-2-(9-(4-methyl-5-oxo-2,5-dihydrofuran-3-yl)-3,9-diazaspiro[5.5]undecan-3-yl)ethyl)-4-methylisobenzofuran-1(3H)-one]
28 | 93 | Cc1c(CCN2CCC3(CC2)CCN(c2c(C)c(=O)c2=O)CC3)ccc2c1COC2=O [Example 3, 3-methyl-4-(9-(2-(4-methyl-1-oxo-1,3-dihydroisobenzofuran-5-yl)ethyl)-3,9-diazaspiro[5.5]undecan-3-yl)cyclobut-3-ene-1,2-dione]
